One data set has as its target T1, A1 adenosine receptor (Mesocricetus auratus, UniProt A0A1U8BVR4).
T1 sequence (A0A1U8BVR4 1-326): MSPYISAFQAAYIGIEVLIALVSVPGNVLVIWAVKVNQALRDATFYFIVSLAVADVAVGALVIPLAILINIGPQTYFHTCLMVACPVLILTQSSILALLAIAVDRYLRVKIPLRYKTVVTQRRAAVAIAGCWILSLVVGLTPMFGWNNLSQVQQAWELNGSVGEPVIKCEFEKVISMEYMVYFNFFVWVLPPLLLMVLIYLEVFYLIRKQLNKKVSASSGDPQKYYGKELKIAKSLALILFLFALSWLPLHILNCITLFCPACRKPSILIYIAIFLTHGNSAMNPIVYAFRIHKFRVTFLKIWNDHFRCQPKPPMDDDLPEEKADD
Description: Competitive radioligand binding assay, DDT cell membranes. On the set-up: species or system hamster. As to conditions: membranes of DDT cells; tritiated radioligand 1.5 nM; 23° C. 90 minutes; read-out: A1 BINDING AFFINITY Ki. The procedure: DDT cells (hamster vas deferens smooth muscle cell line) were grown as monolayers in petri dishes using Dulbecco's Modified Eagle's Medium (DMEM) containing 2.5 μg mL^−1 amphotericin B, 100 U mL^−1 penicillin G, 0.1 mg mL^−1 streptomycin sulfate and 5% fetal bovine serum in a humidified atmosphere of 95% air and 5% CO2. Cells were subcultured twice weekly by dispersion in Hank's Balanced Salt Solution (HBSS) without the divalent cations and containing 1 mM EDTA. The cells were then seeded in growth medium at a density of 1.2×10^5 cells per plate and experiments were performed 4 days later at approximately one day preconfluence.
Attached cells were washed twice with HBSS (2×10 mL), scraped free of the plate with the aid of a rubber policeman in 5 mL of 50 mM Tris-HCl buffer pH 7.4 at 4° C. and the suspension was homogenized for 10 s. The suspension was then centrifuged at 27,000×g for 10 min. The pellet was resuspended in homogenization buffer by vortexing and centrifuged again as described above. The final pellet was resuspended in 1 vol of 50 mM Tris-HCl buffer pH 7.4 containing 5 mM MgCl2 for A1 adenosine receptor assays. For the [^35S]GTPγS binding assay the final pellet was resuspended in 50 mM Tris-HCl pH 7.4 containing 5 mM MgCl2, 100 mM NaCl and 1 mM dithiothreitol. This membrane suspension was then placed in liquid nitrogen for 10 min and stored at −80° C. Aliquots of the membrane suspension were later thawed and used for assays. The protein content was determined with a BradfordTm Assay Kit using bovine serum albumin as standard.
Compounds of Formula I were assayed by use of competitive radioligand binding methods to determine their affinity for the A1 adenosine receptor sites on the membranes of DDT cells. […] The amount of radioactivity retained on the filters was determined by liquid scintillation spectrometry. […]

The conditions of data set [1]: cited from earlier work.

These results are taken from US7381714B2, “A1 adenosine receptor agonists” (CV Therapeutics, Inc., priority 2005, dated 2008).

In general, Ki refers to a dissociation constant, usually derived from enzyme kinetics or from competition with a known ligand. Regarding `CCOC(=O)c1cn(-c2nc(NC3CCCC3)c3ncn([C@@H]4O[C@H](CO)[C@@H](O)[C@H]4O)c3n2)nn1` [II., ethyl 1-{9-[(4S,3R,5R)-3,4-dihydroxy-5-(hydroxymethyl)oxolan-2-yl]-6-(cyclopentylamino)purin-2-yl}-1,2,3-triazole-4-carboxylate], the inhibition constant (Ki) on A1 adenosine receptor amounted to 3 nM.
As to `CNC(=O)c1cn(-c2nc(NC3CCCC3)c3ncn([C@@H]4O[C@H](CO)[C@@H](O)[C@H]4O)c3n2)nn1` [III., (1-{9-[(4S,3R,5R)-3,4-dihydroxy-5-(hydroxymethyl)oxolan-2-yl]-6-(cyclopentylamino)purin-2-yl}(1,2,3-triazol-4-yl))-N-methylcarboxamide], the Ki at A1 adenosine receptor was 2 nM.
The same measure, in the same setting: in the case of `NC(=O)c1cn(-c2nc(NC3CCCC3)c3ncn([C@@H]4O[C@H](CO)[C@@H](O)[C@H]4O)c3n2)nn1` [IV., 1-{9-[(4S,3R,5R)-3,4-dihydroxy-5-(hydroxymethyl)oxolan-2-yl]-6-(cyclopentylamino)purin-2-yl}-1,2,3-triazole-4-carboxamide] it was 16 nM.
Turning to `Nc1ncnc2c1ncn2[C@@H]1O[C@H](CO)[C@@H](O)[C@H]1O` [adenosine], the half-life entry in data set [1] is “less than 10 sec”.
